In ChEMBL document CHEMBL1201862, “PubChem BioAssay data set” (2004) one finds EC50, IC50 and AC50 data, which are given here for four molecules.

Calls of active or inactive are those of the source.

Assay [1] deals with Kappa-type opioid receptor (Homo sapiens, UniProt P41145). The experiment in a line: SAR analysis of small molecule agonists of the kappa opioid receptor via a luminescent beta-arrestin assay - Set 3. [Related pubchem assays (depositor defined):AID1777, AID1785, AID1786, AID1966, AID2133, AID2136, AID2284, AID2500]. It counts as functional.
Assay [2] concerns the target RNA-editing ligase 1, mitochondrial (Trypanosoma brucei brucei, UniProt P86926). The experiment in a line: inhibition of trypanosome RNA editing ligase – biochemical, fluorescence, Trypanosoma brucei, dose response (AID 1117295). In kind it is functional.
Assay [3] concerns the target T1, Fructose-bisphosphate aldolase (Mycobacterium tuberculosis, UniProt P9WQA3).
T1 sequence (P9WQA3 whole entry): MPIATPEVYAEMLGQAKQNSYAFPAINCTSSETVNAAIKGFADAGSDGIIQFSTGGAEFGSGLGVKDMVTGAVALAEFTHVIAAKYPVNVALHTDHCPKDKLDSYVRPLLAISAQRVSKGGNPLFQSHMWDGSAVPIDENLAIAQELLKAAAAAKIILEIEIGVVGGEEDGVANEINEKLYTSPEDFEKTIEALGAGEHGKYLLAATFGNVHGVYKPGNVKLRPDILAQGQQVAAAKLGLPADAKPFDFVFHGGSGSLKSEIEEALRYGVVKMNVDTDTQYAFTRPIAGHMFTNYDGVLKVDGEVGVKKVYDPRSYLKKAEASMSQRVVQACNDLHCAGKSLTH
The experiment in a line: Fluorescence-based biochemical high throughput dose response assay for inhibitors of the fructose-bisphosphate aldolase (FBA) of M. tuberculosis. In kind it is functional.

Assay [4] in a line: restored growth of temperature-sensitive Burl-1 yeast – whole organism, S. cerevisiae, Burl-1 ts mutant, luminescence, counter-screen for SUMOylation pathway inhibitor project, dose response (AID 463199). It counts as functional. (In general: Counterscreens check selectivity or assay interference.)
Assay [5] deals with T2, Carboxy-terminal domain RNA polymerase II polypeptide A small phosphatase 1 (Homo sapiens, UniProt Q9GZU7).
T2 sequence (Q9GZU7 whole entry): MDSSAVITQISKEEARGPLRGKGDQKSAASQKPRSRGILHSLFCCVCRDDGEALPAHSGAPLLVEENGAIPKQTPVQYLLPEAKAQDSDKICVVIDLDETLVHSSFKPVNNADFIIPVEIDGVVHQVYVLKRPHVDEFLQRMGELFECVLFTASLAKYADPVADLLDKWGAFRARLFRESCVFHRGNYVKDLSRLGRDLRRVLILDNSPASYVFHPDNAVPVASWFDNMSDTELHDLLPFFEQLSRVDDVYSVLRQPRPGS
Briefly: CTDSP1 inhibitors, concentration-response, biochemical, absorbance readout, ultra-high-throughput screen actives (AID 540297). In kind it is functional.

Assay [6] concerns the target NAD-dependent protein deacylase sirtuin-5, mitochondrial (Homo sapiens, UniProt Q9NXA8). Briefly: sirtuin-5 deacylation blockers, concentration series – biochemical, fluorescence imaging, cherry-pick, set 5, dose response (AID 720591).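 Note: desuccinylation of succinyl peptide AMC substrate read as fluorescence after trypsin release; potency of inhibitors that lower fluorescence and may act on trypsin instead.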
The target of assay [7] is Dual specificity protein phosphatase 3 (Homo sapiens, UniProt P51452). The experiment in a line: SAR VHR1 Fluorescent Assay for In Vitro dose response studies Set 2. [Related pubchem assays (depositor defined):AID1654, AID1661, AID1878]. It counts as functional.
Assay [8] concerns the target Dual specificity protein phosphatase 6 (Rattus norvegicus, UniProt Q64346). In kind it is functional.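 Note: confirmatory in vitro dose-response testing of MKP-3 inhibition; recombinant His-tagged MKP-3 made in E. coli BL21 with OMFP substrate.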
The test system of assay [9] is HEK293. Briefly: NOD2 signaling inhibitors in MDP-stimulated cells, cell-based, uHTS, luminescence (AID 2001). As to conditions: Homo sapiens. It counts as functional.
The target of assay [10] is Nucleotide-binding oligomerization domain-containing protein 1 (Homo sapiens, UniProt Q9Y239). Briefly: blockers of NOD1 pathway activity – revised, SAR follow-up (AID 2333). It counts as functional.
The subject of assay [11] is HEK293. Briefly: cells. It counts as functional, cell-based. The note with it: Homo sapiens.
For assay [12], the system named is HEK293. Briefly: cells. The note with it: Homo sapiens.
The subject of assay [13] is HEK293. Briefly: inhibition of NOD1-driven NF-kB reporter – cell-based, luminescence, uHTS, primary screen (AID 1578). It counts as functional. As to conditions: Homo sapiens.
The target of a further assay is Tumor necrosis factor (Homo sapiens, UniProt P01375). Briefly: analog potency on TNFa NF-kB signaling – cell-based, revised, SAR follow-up (AID 2337). In kind it is functional.
Assay [14] concerns HEK293. Briefly: cells. It counts as functional, cell-based. The note with it: Homo sapiens. The source holds these as a separate data set.

Sequence of Dual specificity protein phosphatase 3 (P51452 whole entry): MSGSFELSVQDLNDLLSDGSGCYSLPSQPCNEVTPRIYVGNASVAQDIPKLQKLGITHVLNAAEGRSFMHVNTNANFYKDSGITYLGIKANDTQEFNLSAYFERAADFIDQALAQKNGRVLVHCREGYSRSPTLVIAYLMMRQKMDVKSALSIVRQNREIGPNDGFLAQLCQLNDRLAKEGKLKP
Sequence of Tumor necrosis factor (P01375 whole entry): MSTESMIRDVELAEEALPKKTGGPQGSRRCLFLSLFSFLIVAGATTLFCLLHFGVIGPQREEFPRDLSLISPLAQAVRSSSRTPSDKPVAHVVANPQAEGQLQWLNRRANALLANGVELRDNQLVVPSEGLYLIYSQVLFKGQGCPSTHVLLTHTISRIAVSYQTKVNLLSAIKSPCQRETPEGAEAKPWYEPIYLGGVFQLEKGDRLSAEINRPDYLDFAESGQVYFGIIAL
Sequence of Dual specificity protein phosphatase 6 (Q64346 whole entry): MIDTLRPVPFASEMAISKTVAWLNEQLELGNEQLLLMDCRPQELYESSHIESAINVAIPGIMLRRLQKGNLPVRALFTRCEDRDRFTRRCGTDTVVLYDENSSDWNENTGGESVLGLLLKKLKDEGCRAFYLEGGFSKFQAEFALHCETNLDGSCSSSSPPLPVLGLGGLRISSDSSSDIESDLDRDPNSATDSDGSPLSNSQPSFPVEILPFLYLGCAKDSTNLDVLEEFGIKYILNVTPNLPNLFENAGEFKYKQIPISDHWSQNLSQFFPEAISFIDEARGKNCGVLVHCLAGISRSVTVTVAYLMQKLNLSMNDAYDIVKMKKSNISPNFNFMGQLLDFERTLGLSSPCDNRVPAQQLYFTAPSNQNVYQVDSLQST
Sequence of Kappa-type opioid receptor (P41145 whole entry): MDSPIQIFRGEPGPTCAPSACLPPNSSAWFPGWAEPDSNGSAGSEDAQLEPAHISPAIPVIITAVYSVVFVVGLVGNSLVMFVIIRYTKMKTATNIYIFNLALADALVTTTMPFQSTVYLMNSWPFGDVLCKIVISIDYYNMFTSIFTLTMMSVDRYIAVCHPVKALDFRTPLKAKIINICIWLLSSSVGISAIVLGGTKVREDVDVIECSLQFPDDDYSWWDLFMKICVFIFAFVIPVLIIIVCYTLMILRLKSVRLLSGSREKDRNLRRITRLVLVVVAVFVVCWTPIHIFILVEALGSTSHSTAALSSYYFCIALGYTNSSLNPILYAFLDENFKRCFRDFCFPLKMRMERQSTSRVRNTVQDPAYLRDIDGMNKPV
Sequence of RNA-editing ligase 1, mitochondrial (P86926 whole entry): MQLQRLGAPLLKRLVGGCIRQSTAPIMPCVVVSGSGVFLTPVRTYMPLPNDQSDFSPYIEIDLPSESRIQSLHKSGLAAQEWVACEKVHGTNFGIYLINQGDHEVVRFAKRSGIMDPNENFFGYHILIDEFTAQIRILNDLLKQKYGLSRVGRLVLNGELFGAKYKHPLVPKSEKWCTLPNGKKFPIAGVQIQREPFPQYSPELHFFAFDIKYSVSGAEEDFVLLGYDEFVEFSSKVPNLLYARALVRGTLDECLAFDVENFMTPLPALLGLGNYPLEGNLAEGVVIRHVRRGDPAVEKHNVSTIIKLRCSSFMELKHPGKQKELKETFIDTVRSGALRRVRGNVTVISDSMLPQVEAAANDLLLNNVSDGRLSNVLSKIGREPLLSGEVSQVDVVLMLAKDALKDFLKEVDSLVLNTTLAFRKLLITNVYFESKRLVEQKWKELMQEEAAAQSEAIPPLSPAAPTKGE
Sequence of Nucleotide-binding oligomerization domain-containing protein 1 (Q9Y239 whole entry, the tested form may be a part): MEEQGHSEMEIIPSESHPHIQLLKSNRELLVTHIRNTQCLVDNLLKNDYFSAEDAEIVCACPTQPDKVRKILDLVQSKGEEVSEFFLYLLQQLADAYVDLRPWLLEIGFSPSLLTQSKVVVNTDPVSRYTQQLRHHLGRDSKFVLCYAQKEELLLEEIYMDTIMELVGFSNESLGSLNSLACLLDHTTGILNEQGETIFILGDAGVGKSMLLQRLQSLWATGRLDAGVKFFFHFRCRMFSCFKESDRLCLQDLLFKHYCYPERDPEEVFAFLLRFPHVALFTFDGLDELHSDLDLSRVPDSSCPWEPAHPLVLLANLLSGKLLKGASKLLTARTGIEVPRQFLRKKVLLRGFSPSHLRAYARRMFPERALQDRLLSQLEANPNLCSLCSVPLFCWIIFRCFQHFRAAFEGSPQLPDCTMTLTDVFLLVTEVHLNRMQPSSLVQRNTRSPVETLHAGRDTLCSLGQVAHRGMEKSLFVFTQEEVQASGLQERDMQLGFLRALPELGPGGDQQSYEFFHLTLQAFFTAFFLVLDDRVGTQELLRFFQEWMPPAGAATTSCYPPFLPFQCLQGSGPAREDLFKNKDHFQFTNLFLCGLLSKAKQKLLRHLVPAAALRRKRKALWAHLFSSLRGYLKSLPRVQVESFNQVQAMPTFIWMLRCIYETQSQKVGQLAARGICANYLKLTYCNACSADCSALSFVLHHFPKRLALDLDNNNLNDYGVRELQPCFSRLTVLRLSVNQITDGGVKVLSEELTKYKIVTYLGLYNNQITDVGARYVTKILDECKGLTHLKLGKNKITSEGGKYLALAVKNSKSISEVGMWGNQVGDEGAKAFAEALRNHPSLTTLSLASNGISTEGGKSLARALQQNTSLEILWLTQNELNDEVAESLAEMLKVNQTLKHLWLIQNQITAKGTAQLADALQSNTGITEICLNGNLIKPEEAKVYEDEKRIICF
Sequence of NAD-dependent protein deacylase sirtuin-5, mitochondrial (Q9NXA8 whole entry): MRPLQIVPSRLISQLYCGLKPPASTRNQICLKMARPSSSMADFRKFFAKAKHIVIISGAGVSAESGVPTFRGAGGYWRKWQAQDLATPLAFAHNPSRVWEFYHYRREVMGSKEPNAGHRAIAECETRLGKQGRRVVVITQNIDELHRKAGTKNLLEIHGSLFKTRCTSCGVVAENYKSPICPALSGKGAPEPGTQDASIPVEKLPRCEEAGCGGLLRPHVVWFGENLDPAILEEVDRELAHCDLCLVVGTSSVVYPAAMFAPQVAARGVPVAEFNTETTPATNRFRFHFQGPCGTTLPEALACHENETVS

Usually EC50 stands for the concentration needed to bring the measured effect to its halfway point. In the case of `Brc1ccc(CSc2nnc(-c3ccc(Br)cc3)n2Cc2ccco2)cc1`, in assay [1], the EC50 was 11.3 µM (inactive).
For orientation: IC50 means the midpoint of a concentration-inhibition curve. What is called AC50 is the concentration at which the activity in the assay is half-maximal. `CCCSc1nnc(NC(=O)CSc2sc3c(O)cc(O)nc3c2C#N)s1`: the IC50 in assay [2] was 50.7 µM (inactive); in assay [3], > 9.99 µM (inactive); in [5] it was 3.46 µM (active). Further, the AC50 in assay [4] was 106 µM (active); in assay [6] it was > 30 µM (inactive).
For `COc1ccc(C(=O)NC2CCSc3ccccc32)cc1S(N)(=O)=O` (stereo not given), the IC50 in assay [7] and in assay [8] was > 100 µM (inactive) each time.
For `NC(=O)c1ccc(N2CCN(S(=O)(=O)c3ccccc3)CC2)c([N+](=O)[O-])c1`, the IC50 with HEK293 [9] is > 20 µM (inactive); in [10], 5.86 µM (active); with HEK293 [11], 16 µM (active); in the assay on HEK293 [12] it was > 20 µM (inactive); on Tumor necrosis factor it was > 20 µM (inactive); in the assay on HEK293 [14] it was > 20 µM (inactive). For the same molecule, in the assay on HEK293 [13], the EC50 was 4.72 µM (active).
